According to patent US5312816A, “Method of combatting osteoporosis in mammalian subjects, utilizing organic boron compounds” (priority 1993, dated 1994):
Counter-ions that a name gives are not always drawn. Like-named read-outs stand apart in the source and are kept apart here.

Experiments:
Calcium = test: Serum and urine calcium levels in vivo; details: Cf1 male mice, 8 mg/kg/day I.P. 14 days, N=6
Phosphorus = test: Serum and urine inorganic phosphorus levels in vivo; details: Cf1 male mice, 8 mg/kg/day I.P. 14 days, N=6
Hydroxyproline = test: Serum and urine hydroxyproline levels in vivo; details: Cf1 male mice, 8 mg/kg/day I.P. 14 days, N=6
5'-Lipoxygenase = biological target: T1, 5'-Lipoxygenase (Homo sapiens, UniProt P09917); test: Human leukocyte 5'-lipoxygenase; assay type: cell-based
T1 construct: human leukocyte tissue culture cells; endogenous in cells; host or cells: Human peripheral leukocytes, RPMI-1788
T1 sequence (P09917 1-674): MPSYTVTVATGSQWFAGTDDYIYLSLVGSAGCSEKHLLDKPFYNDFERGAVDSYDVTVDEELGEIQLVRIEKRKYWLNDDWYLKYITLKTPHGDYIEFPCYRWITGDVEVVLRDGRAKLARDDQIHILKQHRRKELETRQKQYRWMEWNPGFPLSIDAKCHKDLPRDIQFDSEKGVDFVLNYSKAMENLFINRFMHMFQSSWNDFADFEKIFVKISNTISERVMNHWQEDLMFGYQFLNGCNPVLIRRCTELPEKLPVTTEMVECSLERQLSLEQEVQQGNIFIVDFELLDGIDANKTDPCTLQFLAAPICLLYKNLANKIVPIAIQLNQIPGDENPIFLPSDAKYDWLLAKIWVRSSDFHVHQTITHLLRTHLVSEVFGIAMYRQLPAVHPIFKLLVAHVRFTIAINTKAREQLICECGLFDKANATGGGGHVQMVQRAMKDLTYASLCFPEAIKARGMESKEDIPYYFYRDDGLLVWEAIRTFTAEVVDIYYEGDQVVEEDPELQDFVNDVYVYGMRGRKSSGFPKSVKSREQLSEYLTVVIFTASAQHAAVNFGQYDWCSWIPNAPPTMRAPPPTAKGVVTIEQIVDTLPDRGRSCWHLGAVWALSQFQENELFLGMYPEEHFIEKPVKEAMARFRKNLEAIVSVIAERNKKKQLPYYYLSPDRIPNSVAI

Cathepsin D [1] = biological target: T2, Cathepsin D (Mus musculus, UniProt P18242); test: Mouse hepatic lysosomal cathepsin D activity; assay type: biochemical
T2 construct: azocasein assay pH 5.0
Text: (§1) 1. Cf1 male mouse hepatic 10% homogenates in 0.25M sucrose+0.001MEDTA,pH 7.2.
(§2) Lysosomal Enzymes - free and total [triton X-100].
(§3) 2. Acid Cathepsin D -azocasein-pH 5.0, hydrolytic azo-peptide produce 366 nm.
Cathepsin azo casein activity -

Cathepsin = test: Human leukocyte cathepsin; assay type: cell-based; details: Table XIX; read-out: Human Leukocyte IC50 (head gives no enzyme; beside Cathepsin D)
Text: 5. Human peripheral leukocytes, RPMI-1788
as §3

Elastase = test: Mouse macrophage elastase activity; assay type: cell-based; details: Table XVIII; mouse macrophage, 60 min incubation; read-out: Elastase IC50
Text: Elastase- N-succinyl-L-alanyl-L-alanine-p-nitroanilide, pH 8.0, p-nitro anilide 410 nm.

Aryl sulphatase [2] = test: Mouse macrophage aryl sulphatase activity; assay type: cell-based; details: Table XVII; mouse macrophage, 60 min incubation; read-out: Aryl Sulphatase IC50
Acid phosphatase [3] = test: Mouse macrophage acid phosphatase activity; assay type: cell-based; details: Table XVII; mouse macrophage, 60 min incubation; read-out: Acid Phosphatase IC50
Acid phosphatase [4] = test: Mouse hepatic lysosomal acid phosphatase activity; assay type: biochemical; details: Table XV; mouse hepatic, 60 min incubation
Text: as §1, §2
1. Acid phosphatase -beta glycerol-3-phosphate, pH 5.0, released IP 720 nm.
Acid phosphatase activity -

Cathepsin D [5] = biological target: T2, Cathepsin D; test: Mouse macrophage cathepsin D activity; assay type: cell-based; details: Table XVII; mouse macrophage, 60 min incubation; read-out: Cathepsin D pH 5.0 IC50
Text: (§4) 3. Mouse macrophages J774A.1 BALB/c
as §3

Cf1 male mice [6] = test: Anti-inflammatory screen, Winter's test, 2% carrageenan hind foot; assay type: in vivo; details: Table XIV; unit inferred; unit assumed
Experimental: Anti-inflammatory Screen- Cf1 - male mice-Winter's Test 2% carrageenan S.C. plantar surface of hind foot, drugs administered @8 or 10 mg/kg I.P. 2X
Winter, C.A., et al, Proc. Soc.

Cf1 male mice [7] = test: Hot plate tail flick test; assay type: in vivo; details: Table XIV; unit not given
Trypsin [8] = test: Mouse hepatic trypsin activity; assay type: biochemical; details: Table XVI; 60 min incubation; read-out: Mouse Hepatic Trypsin IC50
Text: as §1
1. Trypsin- N-benzoyl-L-arginine ethyl ester pH 8.0, hydrolytic product 253 nm.

Commercial Collagenase = test: Commercial collagenase (type not stated); assay type: biochemical; details: Table XVI, 60 min incubation
Text: 3. Collagenase I, Clostridium histolyticum, bone, skin, tendon, blood vessel, dentine, GI. substrate: rat collagen, N-[propionate-2-3-^3 H] propionylated measured as dpm released.
4. Collagenase II, Clostridium histolyticum, cartilage collagen.

Trypsin [9] = test: Mouse macrophage trypsin (BAEE) activity; assay type: cell-based; details: Table XVIII; mouse macrophage, 60 min incubation; read-out: Trypsin BAEE IC50
[10] = biological target: Prostaglandin cyclooxygenase; test: Mouse macrophage prostaglandin cyclooxygenase activity; assay type: cell-based; details: Table XVIII; mouse macrophage, 60 min incubation; read-out: Prostaglandin Cyclooxygenase IC50
Text: as §4
Prostaglandin synthetase purified beef seminal vesicle ^3 H arachidonic acid (86.2 Ci/mmol), tlc separation.

Aryl sulphatase [11] = test: Mouse hepatic lysosomal aryl sulphatase activity; assay type: biochemical; details: Table XV, 60 min incubation
Text: as §1, §2
3. Aryl sulphatase- p-nitrocatechol sulfate, pH
5. 8 p-nitro-catechol product 510 nm.

Pg. cyclooxygenase = biological target: T3, Pg. cyclooxygenase (Sus scrofa, UniProt A0A287ANF9); test: Porcine seminal vesicles Pg. cyclooxygenase; assay type: biochemical
T3 construct: Porcine Seminal; from tissue; the methods section prints beef seminal vesicle

Cf1 male mice [12] = test: Writhing reflex, 0.6% acetic acid; assay type: in vivo; details: Table XIV; unit inferred; unit assumed
Experimental: Writhing reflex- Cf1 -male mice- 0.6% acetic acid I.P. drugs administered @20 mg/kg/ I.P. 20 min. later - the # of stretches/10 min.
Hendershot, L.C., et al, J.

[13] = Table XV, mouse hepatic, 60 min incubation, read-out: Cathepsin D IC50

T2 sequence (P18242 65-410): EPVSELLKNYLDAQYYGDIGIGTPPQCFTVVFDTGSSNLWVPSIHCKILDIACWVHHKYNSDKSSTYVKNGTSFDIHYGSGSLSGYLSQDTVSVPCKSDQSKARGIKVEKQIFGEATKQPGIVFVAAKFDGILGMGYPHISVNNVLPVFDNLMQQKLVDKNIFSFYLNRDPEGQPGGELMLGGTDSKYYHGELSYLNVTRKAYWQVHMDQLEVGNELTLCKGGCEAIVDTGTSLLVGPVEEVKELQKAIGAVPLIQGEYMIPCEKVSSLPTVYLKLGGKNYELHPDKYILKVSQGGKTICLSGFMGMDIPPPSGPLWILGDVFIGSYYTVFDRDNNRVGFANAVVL
T3 sequence (A0A287ANF9 25-600): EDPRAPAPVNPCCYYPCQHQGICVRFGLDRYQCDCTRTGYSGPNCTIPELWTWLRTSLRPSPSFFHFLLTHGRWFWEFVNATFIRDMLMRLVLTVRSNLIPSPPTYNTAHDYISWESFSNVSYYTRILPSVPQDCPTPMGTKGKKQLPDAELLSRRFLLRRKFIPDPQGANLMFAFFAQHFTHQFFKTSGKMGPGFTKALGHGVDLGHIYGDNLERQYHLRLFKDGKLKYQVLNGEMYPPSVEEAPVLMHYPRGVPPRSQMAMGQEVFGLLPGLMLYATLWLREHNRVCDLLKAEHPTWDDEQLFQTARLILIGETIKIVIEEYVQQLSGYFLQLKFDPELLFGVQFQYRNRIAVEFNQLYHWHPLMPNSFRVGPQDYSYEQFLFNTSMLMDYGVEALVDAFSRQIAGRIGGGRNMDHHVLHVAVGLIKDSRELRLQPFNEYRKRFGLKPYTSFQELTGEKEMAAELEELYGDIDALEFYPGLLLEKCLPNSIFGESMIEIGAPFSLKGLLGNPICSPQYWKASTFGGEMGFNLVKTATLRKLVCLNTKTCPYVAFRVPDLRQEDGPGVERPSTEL

| Structure (SMILES) | Calcium serum (Calcium) | Calcium urine (Calcium) | Phosphorus serum (Phosphorus) | Phosphorus urine (Phosphorus) | Hydroxyproline serum (Hydroxyproline) | Hydroxyproline urine (Hydroxyproline) | IC50 (Elastase) | IC50 (Aryl sulphatase [2]) | IC50 (Acid phosphatase [3]) | IC50 (Acid phosphatase [4]) | IC50 (Cathepsin D [5]) | Anti-Inflammation Cf1 Mice (Cf1 male mice [6]) | Tail Flick Mice (Cf1 male mice [7]) | IC50 (Trypsin [8]) | IC50 (Trypsin [9]) | IC50 (Cathepsin D [1]; [13]) | IC50 [10] | IC50 (Aryl sulphatase [11]) | Writhing Reflex Mice (Cf1 male mice [12]) | further results |
| --- | --- | --- | --- | --- | --- | --- | --- | --- | --- | --- | --- | --- | --- | --- | --- | --- | --- | --- | --- | --- |
| C[NH2+][BH2-]C(=O)OC [CH3 NH2 BH2 COOCH3, Methylamine-carbomethoxyborane] | 105.1 % Control | 176.9 % Control | 65.3 % Control | 136.8 % Control | 68.0 % Control | 144.1 % Control | – | – | – | – | – | – | – | – | – | – | – | – | – | – |
| O=C(O)[BH2-][P+](c1ccccc1)(c1ccccc1)c1ccccc1 [Compound 8, Triphenylphosphine-carboxyborane] | – | 83.5 % Control | – | – | 60.5 % Control | 30.0 % Control | – | – | – | – | – | – | – | – | – | – | – | – | – | – |
| CC(C)[Si](OC[C@H]1O[C@@H](n2ccc(N)[n+]([BH2-]C#N)c2=O)C[C@@H]1O[Si](C(C)C)(C(C)C)C(C)C)(C(C)C)C(C)C [Compound 40] | – | – | – | – | – | – | – | – | – | – | – | – | – | – | – | – | – | – | – | IC50 (5'-Lipoxygenase): 3.88 µM; IC50 (Cathepsin D [1]; read-out: Mouse Hepatic Cathepsin D IC50, Table XIX): 27.2 µM; IC50 (Cathepsin): 6.12 µM |
| C[N+](C)(C)[BH2-]C(=O)[O-].C[N+](C)(C)[BH2-]C(=O)[O-].C[N+](C)(C)[BH2-]C(=O)[O-].C[N+](C)(C)[BH2-]C(=O)[O-].C[N+](C)(C)[BH2-]C(=O)[O-].C[N+](C)(C)[BH2-]C(=O)[O-].O.O.O.[Cl-].[Fe+3].[Fe+3].[Fe+3].[O-2] [Compound 25] | – | – | – | – | – | – | 4.11 µM | 2.75 µM | 2.44 µM | 4.14 µM | 3.39 µM | 74.2% | 599 | 9.91 µM | 1.81 µM | 8.17 µM | 2.08 µM | 2.33 µM | 36.4% | IC50 (Commercial Collagenase): 475 µM; IC50 (Pg. cyclooxygenase; Table XVI, 60 min incubation): 4.17 µM |
| CC[NH2+][BH2-]C(=O)O [CH3 CH2 NH2 BH2 COOH] | 121.0 % Control | 61.2 % Control | 64.3 % Control | 78.0 % Control | 89.1 % Control | 69.2 % Control | – | – | – | – | – | – | – | – | – | – | – | – | – | – |
| C[N+](C)(C)[BH2-]C(=O)O [Compound 22, Trimethylamine-carboxyborane, sodium salt] | – | – | – | – | – | – | 7.26 µM | 1.33 µM | 2 µM | 3.56 µM | 1.92 µM | 73.4% | 101 | 9.98 µM | 2.27 µM | 6.69 µM | 2.41 µM | 5.15 µM | 76.5% | IC50 (Commercial Collagenase; sodium salt): 490 µM; IC50 (Pg. cyclooxygenase): 2.4 µM |
